Publication PMC3968008 (PLoS ONE, 2014)
Values after ≈ are worked out from the molar mass of the structure shown. “Also recorded” adds a separate entry of the source. Ends that are not written are not given here.

How the values were obtained:
[1] = pooled rat serum; details: 37°C, up to 60 minutes
[2] = test system: interleukin-8 (IL-8) mRNA in NHDFs; assay: IL-8 mRNA expression, real-time RT-PCR; format: cell-based, human; details: Wortmannin 100 nM, SR-0379 10 μg/ml
Description: Expression of the human IL-8 mRNA was measured using real-time reverse transcription polymerase chain reaction (RT-PCR). Total RNA was extracted from the tissue samples using ISOGEN reagent (NIPPON GENE, Toyama, Japan). Complementary DNA (cDNA) was synthesized using the Thermo Script RT-PCR System (Invitrogen, Carlsbad, CA). Relative gene-copy numbers for IL-8 mRNA and glyceraldehyde-3-phosphate dehydrogenase (GAPDH) were determined by real-time RT-PCR using TaqMan Gene Expression Assays (IL-8: Hs00174103_m1; GAPDH: 4352934). Absolute gene-copy numbers were normalized to GAPDH using a standard curve.

[3] = test system: Micrococcus luteus; assay: microbe, parasite or virus in culture; format: cell-based; details: Micrococcus luteus; aerobe; broth microdilution; individual data from two independent experiments
Description: (§1) Antimicrobial activity of the peptides was evaluated against Escherichia coli JCM 5491, Pseudomonas aeruginosa JCM 6119, Staphylococcus aureus JCM2874, Salmonella Typhimurium JCM1652, Acinetobacter baumannii JCM6841, Bacteroides fragilis JCM11019, Fusobacterium nucleatum JCM11025, Penicillium glabrum JCM22534, Fusarium solani JCM11383, Alternaria alternata JCM5800 (RIKEN, A research institution for basic and applied science in Japan), Micrococcus luteus NBRC13867, Bacillus subtilis NBRC3134, Propionibacterium acnes NBRC107605, Trichophyton mentagrophytes NBRC6124, Trichophyton rubrum NBRC9185, Candida krusei NBRC1395 (National Institute of Technology and Evaluation, Tokyo, Japan), Salmonella Enteritidis IID604 (The Institute of Medical Science, The University of Tokyo, Tokyo, Japan). Additionally, the clinical isolates (Drug-sensitive/resistant Pseudomonas aeruginosa and Staphylococcus aureus, Osaka University Hospital) and multidrug-resistant Acinetobacter baumannii (ATCC BAA-1605) were used. […] Serial two-fold dilutions of peptide were added to 0.1 ml of medium containing each type of bacteria and fungi at concentrations of 0.4×10^4 – 5×10^4 CFU/ml. The plates were incubated at 37°C with vigorous shaking for 24 or 48 hours. The MICs were determined as the lowest concentrations of peptide that inhibited visible bacterial growth.

[4] = test system: Bacillus subtilis; assay: microbe, parasite or virus in culture; format: cell-based; details: Bacillus subtilis; aerobe; broth microdilution; individual data from two independent experiments
Description: (§2) Antimicrobial activity of the peptides was evaluated against Escherichia coli JCM 5491, Pseudomonas aeruginosa JCM 6119, Staphylococcus aureus JCM2874, Salmonella Typhimurium JCM1652, Acinetobacter baumannii JCM6841, Bacteroides fragilis JCM11019, Fusobacterium nucleatum JCM11025, Penicillium glabrum JCM22534, Fusarium solani JCM11383, Alternaria alternata JCM5800 (RIKEN, A research institution for basic and applied science in Japan), Micrococcus luteus NBRC13867, Bacillus subtilis NBRC3134, Propionibacterium acnes NBRC107605, Trichophyton mentagrophytes NBRC6124, Trichophyton rubrum NBRC9185, Candida krusei NBRC1395 (National Institute of Technology and Evaluation, Tokyo, Japan), Salmonella Enteritidis IID604 (The Institute of Medical Science, The University of Tokyo, Tokyo, Japan). […] Serial two-fold dilutions of peptide were added to 0.1 ml of medium containing each type of bacteria and fungi at concentrations of 0.4×10^4 – 5×10^4 CFU/ml. The plates were incubated at 37°C with vigorous shaking for 24 or 48 hours. The MICs were determined as the lowest concentrations of peptide that inhibited visible bacterial growth.

[5] = test system: Salmonella Enteritidis; assay: microbe, parasite or virus in culture; format: cell-based; details: Salmonella enterica, ENTERITIDIS; aerobe; broth microdilution; individual data from two independent experiments
Description: as §2

[6] = test system: Salmonella Typhimurium; assay: microbe, parasite or virus in culture; format: cell-based; details: Salmonella enterica, TYPHIMURIUM; aerobe; broth microdilution; individual data from two independent experiments
Description: as §2

[7] = test system: Acinetobacter baumannii; format: cell-based; details: aerobe; broth microdilution; individual data from two independent experiments
Description: as §2

[8] = test system: Bacteroides fragilis; assay: microbe, parasite or virus in culture; format: cell-based; details: Bacteroides fragilis; anaerobe; broth microdilution; individual data from two independent experiments
Description: as §1

[9] = test system: Fusobacterium nucleatum; assay: MIC, broth microdilution; format: cell-based; details: anaerobe, individual data from two independent experiments
Description: as §2

[10] = test system: fungi; assay: Antimicrobial spectrum, fungi; format: cell-based
Description: as §2

[11] = test system: NHDFs; assay: NHDFs proliferation, WST-1 assay; format: cell-based, human; details: preincubation with Akt inhibitor IV 1 μM (1 hour) or rapamycin 1 nM (2 hours), then SR-0379
Description: HUVECs, NHDFs and NHEKs were purchased from Kurabo (Osaka, Japan). The endothelial cells were maintained in HuMedia EB2 and the fibroblasts were maintained in Medium 106S. Both media were supplemented with 1% fetal bovine serum (FBS) as described previously. The epidermal keratinocytes were maintained in HuMedia KB2. Cells were incubated at 37°C in a humidified atmosphere of 95% air/5% CO2 with exchange of medium every 2 days. HUVECs were cultured in 96-well plates at a density of 10,000 cells/well and incubated for 48 hours at 37°C with AG30/5C or FGF2 (recombinant human FGF basic, R&D systems, Inc., Minneapolis, MN). The proliferation of HUVECs, NHDFs and NHEKs was analyzed using a WST-1 assay (Dojindo, Kumamoto, Japan). Tubule formation assay has recently been developed in which endothelial cells are co-cultured with fibroblasts. […] The tube-like structures were measured in terms of total tube length with the software (Angiogenesis Image Analyzer, Kurabo, Osaka Japan). Cell migration was evaluated using an Oris cell migration assay kit (Platypus Technologies, LLC., Madison, WI) according to the manufacturer's instructions. […] The number of cells that migrated into the detection zone was measured using a plate reader. […] At each time point, the lattices were digitally photographed from a fixed distance, and their areas were calculated using image analysis software. […]

[12] = test system: E. coli (ATCC25922); assay: microbe, parasite or virus in culture; format: cell-based, Escherichia coli; details: for MIC: Escherichia coli, ATCC25922, broth microdilution, 37°C, 24 or 48 hours, individual data from two independent experiments; for MIC E. coli (ATCC25922): ATCC25922, 48 h
Description: as §1

[13] = test system: P. aeruginosa (ATCC27853); assay: MIC, broth microdilution; format: cell-based, Pseudomonas aeruginosa; design: MIC P. aeruginosa (ATCC27853): unit not given beside the values; details: 24 or 48 hours, individual data from two independent experiments
[14] = test system: S. aureus (ATCC29213); assay: microbe, parasite or virus in culture; format: cell-based, Staphylococcus aureus; details: broth microdilution, 37°C, 24 or 48 hours, individual data from two independent experiments; for MIC: Staphylococcus aureus, ATCC29213
Description: as §1

[15] = peptide 500 μg/ml, 37°C, 3 or 10 minutes, acetonitrile/0.1% trifluoroacetate precipitation, HPLC, N = 2 (Fig. 1E)
Description: In vitro stability studies were performed by incubating the peptide with rat or human serum. Human sera (Pool of donors, 5 men and 5 women) were commercially purchased from KAC (Kyoto, Japan), which has been permitted only for experiment. We don't use the human biological specimens without the documented informed consent. Rat sera were collected from rats. The peptide (500 μg/ml) was added to serum (300 μL) and incubated at 37°C. A part of samples (90 μL) were taken, and the proteins were precipitated with acetonitrile containing 0.1% trifluoroacetate (200 μL). The precipitate was separated by centrifugation. The supernatants were analyzed by high-performance liquid chromatography (HPLC).

[16] = target: T1, P2X7 (Homo sapiens, UniProt Q99572); assay: Contribution of P2X7 receptors to the effect of SR-0379; format: cell-based; details: data not shown
T1 construct: we also examined the contribution of P2X7 receptors to the effect of SR-0379; endogenous in cells; probably NHDFs (human dermal fibroblasts, Kurabo)

[17] = test system: Penicillium glabrum; assay: MIC, broth microdilution; format: cell-based; details: fungus, individual data from two independent experiments
Description: as §2

[18] = test system: Fusarium solani; assay: microbe, parasite or virus in culture; format: cell-based; details: Fusarium solani; fungus; broth microdilution; individual data from two independent experiments
Description: as §1

[19] = test system: Alternaria alternata; assay: microbe, parasite or virus in culture; format: cell-based; details: Alternaria alternata; fungus; broth microdilution; individual data from two independent experiments
Description: as §1

[20] = test system: Trichophyton mentagrophytes; assay: microbe, parasite or virus in culture; format: cell-based; details: Trichophyton mentagrophytes; fungus; broth microdilution; individual data from two independent experiments
Description: as §1

[21] = test system: Trichophyton rubrum; assay: microbe, parasite or virus in culture; format: cell-based; details: Trichophyton rubrum; fungus; broth microdilution; individual data from two independent experiments
Description: as §1

[22] = test system: Candida krusei; assay: microbe, parasite or virus in culture; format: cell-based; details: Pichia kudriavzevii; fungus; broth microdilution; individual data from two independent experiments
Description: as §1

[23] = test system: bacteria; assay: Antimicrobial spectrum, bacteria; format: cell-based
Description: as §2

[24] = pooled rat serum, 37°C, 10 and 60 minutes, MALDI-TOF MS; major metabolites 20 aa, 18 aa, 17 aa and 12 aa
Description: Rat sera were collected from rats. […] Samples were collected before incubation, after 10 minutes of incubation and after 60 minutes of incubation and were precipitated by the addition of an equivalent amount of acetonitrile containing 0.1% trifluoroacetate. The samples were centrifuged, and the supernatants were purified using ZipTip m-C18 (Millipore, MA). Sample solution was mixed with matrix solution (α-cyano 4-hydroxy cinnamic acid).

T1 sequence (Q99572 whole entry): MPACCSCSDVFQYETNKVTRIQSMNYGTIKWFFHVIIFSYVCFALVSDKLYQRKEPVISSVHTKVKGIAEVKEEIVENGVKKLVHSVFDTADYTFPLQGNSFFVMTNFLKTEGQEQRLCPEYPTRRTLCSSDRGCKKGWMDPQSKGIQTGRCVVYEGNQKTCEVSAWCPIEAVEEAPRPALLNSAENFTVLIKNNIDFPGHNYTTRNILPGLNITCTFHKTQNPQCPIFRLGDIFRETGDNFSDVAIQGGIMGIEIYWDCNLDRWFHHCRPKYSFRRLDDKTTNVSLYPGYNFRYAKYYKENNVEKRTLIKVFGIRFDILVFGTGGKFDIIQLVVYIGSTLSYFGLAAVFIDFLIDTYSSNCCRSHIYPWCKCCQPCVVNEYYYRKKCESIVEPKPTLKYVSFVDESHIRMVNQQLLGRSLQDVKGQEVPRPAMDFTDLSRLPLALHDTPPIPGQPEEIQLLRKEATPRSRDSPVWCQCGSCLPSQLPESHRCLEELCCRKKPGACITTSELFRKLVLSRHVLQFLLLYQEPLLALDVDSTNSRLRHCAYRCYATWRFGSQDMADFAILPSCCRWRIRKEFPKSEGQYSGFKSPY

Question: Which fragment found [1] does the source give for MLKLIFLHRLKRMRKRLKRKLRFWHRKRYK here?
Answer: MLKLIFLHRL KRMRKRLKRK (SR-0007), major; also recorded: MLKLIFLHRL KRMRKRLK, major; also recorded: MLKLIFLHRL KRMRKRL, major; also recorded: LHRL KRMRKRLK, major

Question: Which “Effect of pretreatment on SR-0379-induced IL-8 mRNA expression” value [2] does the source give for `COC[C@H]1OC(=O)c2coc3c2[C@@]1(C)C1=C(C3=O)[C@@H]2CCC(=O)[C@@]2(C)C[C@H]1OC(C)=O` [Wortmannin] here?
Answer: attenuated

Question: Which results are given for `O=C(N[C@H](CO)[C@H](O)c1ccc([N+](=O)[O-])cc1)C(Cl)Cl` [Chloramphenicol, reference compound]?
Answer: MIC [3]: 1 µg/mL (≈ 3.09 µM); MIC [4]: 4 µg/mL (≈ 12.4 µM); MIC [5]: 4 µg/mL (≈ 12.4 µM); MIC [6]: 4 µg/mL (≈ 12.4 µM); MIC Acinetobacter baumannii [7]: 16/32; MIC [8]: 1 µg/mL (≈ 3.09 µM); MIC [9]: 0.25 µg/mL (≈ 0.774 µM); Inhibitory activity against fungi [10]: failed to exhibit an inhibitory activity

Question: Which “Effect on SR-0379-induced cell proliferation” value [11] does the source give for `CO[C@H]1C[C@@H]2CC[C@@H](C)[C@@](O)(O2)C(=O)C(=O)N2CCCC[C@H]2C(=O)O[C@H]([C@H](C)C[C@@H]2CC[C@@H](O)[C@H](OC)C2)CC(=O)[C@H](C)/C=C(\C)[C@@H](O)[C@@H](OC)C(=O)[C@H](C)C[C@H](C)/C=C/C=C/C=C/1C` [Rapamycin] here?
Answer: attenuated

Question: What does the source list for `C[C@@H](O)[C@H]1C(=O)N2C(C(=O)O)=C(S[C@@H]3CN[C@H](C(=O)N(C)C)C3)[C@H](C)[C@H]12` [Meropenem, reference compound]?
Answer: MIC [12]: 0.008 to 0.06 µg/mL (≈ 0.0209 to 0.156 µM); MIC ([13]; Pseudomonas aeruginosa, ATCC27853, 37°C): 0.25 to 1 µg/mL (≈ 0.652 to 2.61 µM); MIC [14]: 0.03 to 0.12 µg/mL (≈ 0.0782 to 0.313 µM)

Question: For `CC[n+]1c(/C=C/N(C)c2ccccc2)n(-c2ccccc2)c2ccc(-c3nc4ccccc4s3)cc21.[I-]` [Akt inhibitor IV], which “Effect on SR-0379-induced cell proliferation” value [11] is on record?
Answer: attenuated

Question: Which results are given for MLKLIFLHRLKRMRKRLKRK [SR-0007]?
Answer: MIC E. coli (ATCC25922) [12]: 64 µg/mL; Stability in human serum ([15]; human serum (pool of 5 men and 5 women) 300 μL): rapidly degraded; Stability in rat serum ([15]; rat serum 300 μL): rapidly degraded

Question: With `CCOc1ccc(Nc2ccc(/C(=C3C=C/C(=[N+](/CC)Cc4cccc(S(=O)(=O)[O-])c4)C=C/3C)c3ccc(N(CC)Cc4cccc(S(=O)(=O)O)c4)cc3C)cc2)cc1` [Brilliant Blue G] as the compound, how does the “Inhibition of the effects of SR-0379 by P2X7 antagonist” value [16] read?
Answer: failed to inhibit

Question: Which results are given for `NC[C@H]1O[C@H](O[C@H]2[C@H](O)[C@@H](O[C@H]3O[C@H](CO)[C@@H](O)[C@H](N)[C@H]3O)[C@H](N)C[C@@H]2N)[C@H](N)C[C@@H]1O` [Tobramycin, reference compound]?
Answer: MIC [12]: 0.25 to 1 µg/mL (≈ 0.535 to 2.14 µM); MIC [14]: 0.12 to 1 µg/mL (≈ 0.257 to 2.14 µM)

Question: For `C[C@@H]1[C@H](O)[C@@H](C)/C=C/C=C/C=C/C=C/C=C/C=C/C=C/[C@H](O[C@@H]2O[C@H](C)[C@@H](O)[C@H](N)[C@@H]2O)C[C@@H]2O[C@](O)(C[C@@H](O)C[C@@H](O)[C@H](O)CC[C@@H](O)C[C@@H](O)CC(=O)O[C@H]1C)C[C@H](O)[C@H]2C(=O)O` [Amphotericin B, reference compound], which MIC [17] is on record?
Answer: 0.125 µg/mL (≈ 0.135 µM)

Question: And the MIC [18]?
Answer: 1 µg/mL (≈ 1.08 µM)

Question: What about the MIC [19] of the same compound?
Answer: 1 µg/mL (≈ 1.08 µM)

Question: And the MIC [20]?
Answer: 0.125 µg/mL (≈ 0.135 µM)

Question: And the MIC [21]?
Answer: 0.125 µg/mL (≈ 0.135 µM)

Question: What about the MIC [22] of the same compound?
Answer: 2 µg/mL (≈ 2.16 µM)

Question: And the “Inhibitory activity against bacteria” value [23]?
Answer: failed to exhibit an inhibitory activity

Question: For `Cc1onc(-c2ccccc2)c1C(=O)N[C@@H]1C(=O)N2[C@@H]1SC(C)(C)[C@@H]2C(=O)O` [Oxacillin], which MIC [14] is on record?
Answer: 0.12 to 0.5 µg/mL (≈ 0.299 to 1.25 µM)

Question: What does the source list for “MLKLIFLHRLKRMRKRLKRKLRLWHRKRYK [AG30/5C]”?
Answer: MIC E. coli (ATCC25922) [12]: 32 µg/mL; MIC P. aeruginosa (ATCC27853) ([13]; 37°C): 16/32; MIC S. aureus (ATCC29213) [14]: 16/32; Metabolic stability, cleavage in rat serum [24]: cleaved by endopeptidases and exopeptidase at multiple sites
